The values below come from patent publication US20030187056A1, “Live cell procedures to identify to identify compounds modulating intracellular distribution of phosphodiesterase( pde) enzymes” (priority 2000, published 2003).

Data set [1] concerns the target T1, HSPDE4A4-EGFP (Homo sapiens, UniProt P27815).
T1 construct: expressed in transfected cells
The data set is described as follows: Spot formation in CHO cells transfected with HSPDE4A4-EGFP. Format: cell-based. On the procedure: Chinese hamster ovary cells (CHO), are transfected with the plasmids described in Example 1 above using the transfection agent FuGENE™ 6 (Boehringer Mannheim Corp, USA) according to the method recommended by the suppliers. Stable transfectants are selected using 1 mg/ml G418 sulphate (Calbiochem) in the growth medium (HAM's F12 nutrient mix with Glutamax-1, 10% foetal bovine serum (FBS), 100 μg penicillin-streptomycin mixture ml^−1 (GibcoBRL, supplied by Life Technologies, Denmark). Cell are cultured at 37° C. in 100% humidity and conditions of normal atmospheric gases supplemented with 5% CO2.
For fluorescence microscopy, cells are allowed to adhere to Lab-Tek chambered coverglasses (Nalge Nunc International, Naperville USA) for at least 24 hours and are then cultured to about 80% confluence. Cells can also be grown in plastic 96-well plates (Polyfiltronics Packard 96-View Plate or Costar Black Plate, clear bottom; both types tissue culture treated) for imaging purposes. Prior to experiments, the cells are cultured over night without G418 sulphate in HAM F-12 medium with glutamax, 100 μg penicillin-streptomycin mixture ml^−1 and 10% FBS. This medium has low autofluorescence enabling fluorescence microscopy of cells straight from the incubator. For certain tests requiring medium of defined composition, particularly with regard to the presence of specific cell growth factors, the HAM's culture medium is replaced prior to imaging with a buffered saline solution (KRW buffer) containing (in mM) 3.6 KCl, 140 NaCl, 2 NaHCO3, 0.5 NaH2PO4, 0.5 MgSO4, 1.5 CaCl2, 10 Hepes, 5 glucose, pH7.4.
Changes in cellular distribution of a transfected probe can be imaged and quantified in an automated fashion. For this purpose cells are cultured to near 80% to 90% confluence in coverglass chambers or plastic 96-well plates, given the relevant treatment and allowed to respond. At the end of the response period, cells are fixed in 4% formaldehyde buffer (Lillies fixative buffer, pH7.0: Bie and Berntsen A/S, Denmark) for 30 minutes to 2 hours, then washed in phosphate buffered saline (PBS, Life Technologies, Denmark). Nuclear DNA is stained with 1 μM Hoechst 33258 (Molecular Probes, Eugene, Oreg., USA) in PBS for 10 minutes at 25° C., then washed twice in PBS. Automated images are collected on a Nikon Diaphot 300 (Nikon, Japan) using a Nikon Plan Fluor 20X/0.5NA objective lens. The basic microscope is fitted with a motorised specimen stage and motorised focus control (Prior Scientific, Fulbourn, Cambridge UK), excitation filter wheel (Sutter Instruments, Novato Calif. USA) and Photometrics PXL series camera with a KAF1400 CCD chip (Photometrics, Tucson, Ariz. USA), each of these items being under the control of an Macintosh 7200/90 computer (Apple Computer, Cupertino, Calif. USA). Automation of stage positioning, focus, excitation filter selection, and image acquisition is performed using macros written in-house, running under IPLab Spectrum for Macintosh (Scanalytics, Fairfax, Va. USA). Fluorescence illumination comes from a 100 W HBO lamp. Images are collected in pairs, the first using a 340/10 nm excitation filter, the second with a 475RDF40 excitation filter (Chroma, Brattleboro, Vt.). Both images are collected via the same dichroic and emission filters, which are optimised for EGFP applications (XF100 filter set, Omega Optical, Brattleboro, Vt.). While the choice of filters for imaging the nuclear stain (Hoechst 33258) is not well matched to that dye's spectral properties, resulting in lower image intensity, it greatly improves the throughput of the procedure by allowing both images to be collected using the same dichroic and emission filter. This eliminates any image registration problems and focus shifts which would result from using two different filter sets, which would require more steps in the acquisition procedure and more extensive image processing to overcome.

For the next data set, the target named is T2, HSPDE4A4-ΔLR2-EGFP (Homo sapiens, UniProt P27815, DEL313-320).
T2 construct: expressed in transfected cells
T2 sequence (P27815 with tags, fused parts or gaps DEL313-320): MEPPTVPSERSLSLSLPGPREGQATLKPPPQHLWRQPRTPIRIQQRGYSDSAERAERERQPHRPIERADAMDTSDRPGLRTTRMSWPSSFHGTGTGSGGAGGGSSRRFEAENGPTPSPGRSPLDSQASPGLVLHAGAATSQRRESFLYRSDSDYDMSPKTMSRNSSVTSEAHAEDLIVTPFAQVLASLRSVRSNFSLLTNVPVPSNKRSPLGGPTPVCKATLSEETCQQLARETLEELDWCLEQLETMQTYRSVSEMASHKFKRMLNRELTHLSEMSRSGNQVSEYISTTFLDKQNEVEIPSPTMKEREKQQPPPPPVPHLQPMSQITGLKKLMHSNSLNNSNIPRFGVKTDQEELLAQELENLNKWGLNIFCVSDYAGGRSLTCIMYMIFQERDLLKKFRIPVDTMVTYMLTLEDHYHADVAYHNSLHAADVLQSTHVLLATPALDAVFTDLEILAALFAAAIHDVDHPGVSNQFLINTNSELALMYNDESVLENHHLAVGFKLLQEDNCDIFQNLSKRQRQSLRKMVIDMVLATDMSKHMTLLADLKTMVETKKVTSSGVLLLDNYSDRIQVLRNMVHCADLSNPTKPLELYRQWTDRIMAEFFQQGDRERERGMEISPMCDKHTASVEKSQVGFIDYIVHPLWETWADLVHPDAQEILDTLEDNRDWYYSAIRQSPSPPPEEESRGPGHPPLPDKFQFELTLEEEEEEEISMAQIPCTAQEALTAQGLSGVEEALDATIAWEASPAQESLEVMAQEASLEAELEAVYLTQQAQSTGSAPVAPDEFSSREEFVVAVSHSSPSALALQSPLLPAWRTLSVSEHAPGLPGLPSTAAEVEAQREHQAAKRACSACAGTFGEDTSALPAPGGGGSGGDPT
Nature of the data set: Spot formation in CHO cells transfected with HSPDE4A4-ΔLR2-EGFP. The following applies: 30 to 0.01 μM. Format: cell-based. On the procedure:
Stably transfected (non-clonal) cells are allowed to adhere to chambered coverglasses in HAM's F12 medium containing 10% FBS.
(§1) The cells are then fixed with 4% formaldehyde buffer (pH7) for 1 hour, washed with PBS and stained with 1 μM Hoechst 33258 in PBS for 10 minutes at 25° C., then washed twice in PBS. Automated images are collected and analysed for the number of spots per cell as described in Example 2.

The next data set concerns the target T3, HSPDE4A4-H506N-EGFP (Homo sapiens, UniProt P27815, H506N).
T3 construct: expressed in transfected cells
The data set is described as follows: Spot formation in CHO cells transfected with HSPDE4A4-H506N-EGFP. The following applies: clonal cells, over the concentrations tested. Format: cell-based. On the procedure:
as §1
Cells are grown in HAM's F12 medium plus 10% FBS plus various concentrations of inhibitors for 23.5 hours. The cells are then fixed with 4% formaldehyde buffer (pH7) for 1 hour, washed with PBS and stained with 1 μM Hoechst 33258 in PBS for 10 minutes at 25° C., then washed twice in PBS. Automated images are collected and analysed for the number of spots per cell as described in Example 2.

Data set [2] has as its target T1, HSPDE4A4-EGFP. The data set is described as follows: Dispersal of preformed Rolipram-induced spots, HSPDE4A4-EGFP CHO cells. Format: cell-based. On the procedure: For the microscopic assessment of spot dispersal, stably transfected (non-clonal) cells transfected with the HSPDE4A4-EGFP probe are allowed to adhere to chambered coverglasses in HAM's F12 medium containing 10% FBS. […] Chambered coverglasses are then transferred to a Zeiss 135 inverted microscope for time lapse imaging as described in Example 2, above. At a given point after starting an experiment, a mixture of IBMX and forskolin is added to give final concentrations of 1 mM and 50 μM, respectively. Images are captured at regular intervals to form a time lapse sequence of the response, also as described in Example 2.
The plate is then run in the FLIPR system at 37° C., with addition of IBMX and forskolin to all wells at final concentrations of 500 μM and 50 μM respectively after the first minute. The experiment is continued for a further 45 minutes, readings being taken at intervals of 1 minute.
Non-clonal CHO cells stably transfected with the HSPDE4A4-EGFP probe are allowed to adhere to chambered coverglasses in HAM's F12 medium containing 10% FBS and to grow for 24 hours.
Clonal CHO cells stably transfected with the HSPDE4A4-EGFP probe are allowed to adhere to chambered coverglasses in HAM's F12 medium containing 10% FBS and to grow for 5 days without change of medium, which by this time is serum-depleted.
Individual wells are then treated with either 50 μM forskolin plus 500 μM IBMX or 200 nM PMA plus 2 μM ionomycin.

In the next data set the target is T4, HSPDE4A1-EGFP (Homo sapiens, UniProt P27815).
T4 construct: the ca. 1.95 kb coding region of HSPDE4A1 (GenBank Acc.no. U97584) is amplified; expressed in transfected cells
T4 sequence (P27815 1-647 isoform P27815-4): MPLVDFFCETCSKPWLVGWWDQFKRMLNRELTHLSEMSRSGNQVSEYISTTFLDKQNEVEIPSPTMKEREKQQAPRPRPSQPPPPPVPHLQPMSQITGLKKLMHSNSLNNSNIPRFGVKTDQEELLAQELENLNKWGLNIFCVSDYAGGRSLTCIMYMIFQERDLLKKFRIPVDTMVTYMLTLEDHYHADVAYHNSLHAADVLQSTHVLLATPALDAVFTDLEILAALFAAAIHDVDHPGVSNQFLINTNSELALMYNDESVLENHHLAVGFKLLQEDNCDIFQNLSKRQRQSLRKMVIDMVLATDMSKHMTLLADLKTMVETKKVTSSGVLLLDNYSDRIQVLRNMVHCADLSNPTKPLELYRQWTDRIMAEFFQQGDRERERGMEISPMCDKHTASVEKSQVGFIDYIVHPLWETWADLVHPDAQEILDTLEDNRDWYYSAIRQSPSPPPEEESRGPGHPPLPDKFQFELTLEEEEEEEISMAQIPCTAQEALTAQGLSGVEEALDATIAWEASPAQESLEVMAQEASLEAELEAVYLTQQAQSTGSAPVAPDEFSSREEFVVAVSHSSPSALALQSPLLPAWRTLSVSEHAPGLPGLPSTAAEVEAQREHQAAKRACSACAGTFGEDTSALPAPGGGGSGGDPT
Nature of the data set: Competitive assay: reversal of Rolipram-induced spot dispersal, HSPDE4A1-EGFP CHO cells. Format: cell-based. The following applies: predicted.

Another data set relates to PDE4. As to conditions: yes/no; cited from earlier work.
For data set [3] the following is noted: human, in vivo; cited from earlier work.
Data set [4] concerns HSPDE4A4-EGFP. The data set is described as follows: Formation of small spots in serum-depleted Rolipram-treated HSPDE4A4-EGFP CHO cells. Format: cell-based, Homo sapiens. The following applies: 1 or 2 μM ionomycin, KRW buffer with 2 μM Rolipram. On the procedure: Clonal CHO cells stably transfected with the HSPDE4A4-EGFP probe are allowed to adhere to chambered coverglasses in HAM's F12 medium containing 10% FBS and to grow for 4 days without change of medium. […] At the end of this time approximately 95% of the cells contain bright spots when viewed on a fluorescence microscope.
Individual wells are then treated first with 1 or 2 μM ionomycin, and then a short time later with 50 μM forskolin plus 500 μM IBMX. Within 1 minute of treatment with ionomycin, at either 1 or 2 μM, small spots form in the cytoplasm of the cells (FIGS. 32a and 32b). This occurs in nearly all cells, whether they contain large Rolipram-induced spots or not. Large spots are not affected in any way during the formation of the smaller spots. The small spots will spontaneously disappear within 10 to 20 minutes. Application of forskolin plus IBMX clears them within minutes (FIG. 33a). The larger spots also disperse in time with this treatment, but more slowly (FIG. 33b). The formation of small spots will not occur in serum-replete cells, or in starved cells that then have been given 10% serum for more than 45 minutes. […] The time course of transient appearance of the small spots of the HSPDE4A4-EGFP probe is consistent with that of the Ca^2+ transient generally elicited by ionomycin in treated cells.

Values joined by “and” are separate entries in the source; they are usually repeats but may differ in a detail not shown here. Equal values may be shown once. Bounds are passed on as bounds.

T1 sequence (P27815 whole entry): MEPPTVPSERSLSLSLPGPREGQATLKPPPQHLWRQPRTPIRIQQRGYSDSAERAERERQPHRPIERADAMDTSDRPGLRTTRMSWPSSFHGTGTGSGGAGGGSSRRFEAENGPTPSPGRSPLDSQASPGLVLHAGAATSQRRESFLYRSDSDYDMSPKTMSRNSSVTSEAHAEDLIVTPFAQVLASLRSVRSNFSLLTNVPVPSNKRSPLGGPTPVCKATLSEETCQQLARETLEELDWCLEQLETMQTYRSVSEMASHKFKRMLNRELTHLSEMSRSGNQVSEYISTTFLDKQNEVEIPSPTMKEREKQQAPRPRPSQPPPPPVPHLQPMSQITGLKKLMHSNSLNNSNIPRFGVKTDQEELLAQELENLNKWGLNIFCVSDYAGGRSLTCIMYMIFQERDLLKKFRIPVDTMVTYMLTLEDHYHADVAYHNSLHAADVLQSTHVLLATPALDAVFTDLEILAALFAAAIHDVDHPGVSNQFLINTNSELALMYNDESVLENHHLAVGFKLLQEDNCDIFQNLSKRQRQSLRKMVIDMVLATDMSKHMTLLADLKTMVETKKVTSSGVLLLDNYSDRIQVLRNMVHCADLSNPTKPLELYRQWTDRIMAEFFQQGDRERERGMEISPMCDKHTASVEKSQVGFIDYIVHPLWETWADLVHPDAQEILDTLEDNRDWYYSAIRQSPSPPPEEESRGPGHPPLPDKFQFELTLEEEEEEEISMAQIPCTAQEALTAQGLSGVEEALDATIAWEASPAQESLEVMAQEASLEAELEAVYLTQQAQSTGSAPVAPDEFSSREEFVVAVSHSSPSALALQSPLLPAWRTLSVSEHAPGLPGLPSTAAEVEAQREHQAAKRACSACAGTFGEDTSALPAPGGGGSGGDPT
T3 sequence (P27815 whole entry H506N): as the sequence (P27815 whole entry) above, with H506N counted along it

Take `COc1ccc([C@]2(C#N)CC[C@@H](C(=O)O)CC2)cc1OC1CCCC1` [Ariflo®]: on HSPDE4A4-EGFP [1] (observed up to 24 hours), the “formation of spots, compound alone (in words)” value was “does not by itself produce spots”. For the same compound, the “Formation of PDE4A4 spots” value on HSPDE4A4-EGFP [1] (yes/no) is recorded as “no”. Moreover, the “formation of spots, compound alone (in words)” value on HSPDE4A4-ΔLR2-EGFP is given as “does not by itself produce spots”. Moreover, the “spot formation response (in words)” value at HSPDE4A4-H506N-EGFP was “does not by itself produce spots”. In addition, on HSPDE4A4-EGFP [2] (yes/no), the “Removal of Rolipram-induced PDE4A4-spots” value is “yes”. At HSPDE4A1-EGFP, the “Reversal of Rolipram-induced removal of PDE4A1 spots (predicted, not tested)” value was “yes”. Further, the “Inhibition of PDE4 catalytic activity” value with PDE4 is listed as “yes”. In addition, in data set [3], the Clinical effect result was “anti-” and the Emesis entry was “no”.

Regarding `C[C@H](CCC(=O)O)C[C@H](C)C[C@H](C)C(=O)/C=C(\O)[C@H](C)C[C@H](C)C/C=C/[C@@H](C)[C@@H](O)[C@@H](C)[C@@H](O)C[C@@H]1CC[C@@](C)([C@H]2CC[C@@](C)([C@@H](C)O)O2)O1` [ionomycin], the “cells with bright spots remaining” value on HSPDE4A4-EGFP [2] (2 μM ionomycin 50-55 minutes with 2 μM Rolipram, non-clonal, 10% FBS (control 70%)) is 20-40% and 20 to 40%. In addition, at HSPDE4A4-EGFP [2] (FBS-replete cells, 200 nM PMA, 2 μM ionomycin, or 50 μM forskolin plus 1 mM IBMX), the “dispersal of Rolipram-induced spots (in words)” value is “slowly and in an incomplete manner”. The “time to formation of small spots in the cytoplasm” value with HSPDE4A4-EGFP [4] is not above 1 min.
